≈ marks a conversion by molar mass, not a printed value.
What was measured:
[1] = Inhibition of cell adhesion of human KM12-HX cells to TNF-alpha stimulated HUVEC cells incubated for 30 mins with HUVEC cells followed by [3H]thymidine labeled KM12-HX cells addition measured after 30 mins by radioactivity assay; format: functional, cell-based
[2] = Antimitotic activity against human U373 cells assessed as inhibition of cell proliferation by measuring inhibitory dose incubated for 48 hrs by [3H]-thymidine incorporation based liquid scintillation counting method; format: functional; settings: U373 MG, read-out: ID50 (the source's name)
[3] = Cytotoxicity against mouse NIH/3T3 cells assessed as cell growth inhibition incubated for 3 days by MTT assay; format: toxicity, cell-based, NIH3T3
MCF-10A = assay: Cytotoxicity against human MCF-10A cells assessed as cell growth inhibition incubated for 3 days by MTT assay; format: functional, cell-based; settings: 72 h
[4] = Antimitotic activity against rat Astrocytoma cell assessed as inhibition of cell proliferation by measuring inhibitory dose by [3H]-thymidine incorporation based […]; format: functional; settings: read-out: ID50 (the source's name)
N2a = assay: Antimitotic activity against mouse Neuro2a cells assessed as inhibition of cell proliferation by measuring inhibitory dose by [3H]-thymidine incorporation based […]; format: functional; settings: read-out: ID50 (the source's name)
[5] = Antimitotic activity against rat RN 22 cells assessed as inhibition of cell proliferation by measuring inhibitory dose by [3H]-thymidine incorporation based […]; format: functional; settings: read-out: ID50 (the source's name)
[6] = Antimitotic activity against rat Astrocyte cells assessed as inhibition of cell proliferation by measuring inhibitory dose by [3H]-thymidine incorporation based […]; format: functional; settings: read-out: ID50 (the source's name)
T-24 [7] = assay: Cytotoxicity against human T24 cells assessed as cell viability at 12.5 uM in presence of doxorubicin; format: functional; settings: read-out: Activity
MOLT-4 = assay: Cytotoxicity against human MOLT-4 cells; format: functional, cell-based
MKN-45 = assay: Cytotoxicity against human MKN-45 cells; format: functional, cell-based
T-24 [8] = assay: Cytotoxicity against human T24 cells assessed as cell viability; format: functional
[9] = Cytotoxicity against human HEK293F cells; format: toxicity, cell-based
MG-63 = assay: Cytotoxicity against human MG-63 cells assessed as inhibition of cell growth incubated for 30 mins by MTT colorimetric assay; format: functional, cell-based; settings: MG-63, 0.5 h
MCF7 [10] = assay: Cytotoxicity against human MCF7 cells assessed as inhibition of cell growth incubated for 30 mins by MTT colorimetric assay; format: functional, cell-based; settings: MCF7, 0.5 h
SMMC-7721 = assay: Cytotoxicity against human SMMC-7721 cells assessed as inhibition of cell growth incubated for 30 mins by MTT colorimetric assay; format: functional, cell-based; settings: SMMC-7721, 0.5 h
MCF7 [11] = assay: Antiproliferative activity against human MCF7 cells assessed as cell growth inhibition by measuring minimum inhibitory concentration incubated for 48 hrs by MTT assay; format: functional
BV-173 = assay: Cytotoxicity against human BV-173 cells assessed as inhibition of cell growth incubated for 72 hrs by MTT assay; format: functional, cell-based; settings: BV-173, 72 h
HL-60 = assay: Cytotoxicity against human HL-60 cells assessed as inhibition of cell growth incubated for 72 hrs by MTT assay; format: functional, cell-based; settings: HL-60, 72 h
[12] = Cytotoxicity against human SKW-3 cells assessed as inhibition of cell growth incubated for 72 hrs by MTT assay; format: functional, cell-based; settings: SKW3, 72 h
[13] = Cytotoxicity against human JMSU-1 cells assessed as inhibition of cell growth incubated for 72 hrs by MTT assay; format: functional, cell-based; settings: JMSU-1, 72 h
HeLa = assay: Cytotoxicity against human HeLa cells assessed as inhibition of cell growth incubated for 24 hrs by MTT assay; format: functional, cell-based
MDA-MB-231 [14] = assay: Inhibition of cell migration in human MDA-MB-231 cells incubated upto 48 hrs by inverted microscopic analysis; format: functional
MDA-MB-231 [15] = assay: Cytotoxicity against human MDA-MB-231 cells assessed as cell growth inhibition incubated for 48 hrs by crystal violet staining based spectrofluorimeter assay; format: functional; settings: MDA-MB-231, 48 h
Ca-Ski = assay: Cytotoxicity against human Ca-Ski cells assessed as inhibition of cell growth incubated for 24 hrs by MTT assay; format: functional, cell-based

With `CCCCCCCCCCCCCCC(CCCCCCCCCCCCCC)CO[C@@H]1O[C@H](CO)[C@@H](O[C@@H]2O[C@H](CO)[C@H](O)[C@H](OS(=O)(=O)O)[C@H]2O)[C@H](O[C@@H]2O[C@@H](C)[C@@H](O)[C@@H](O)[C@@H]2O)[C@H]1O` the IC50 [1] was 300 µM.

Compound `CCCCCCCCO[C@H]1O[C@H](COCC(CO)(CO)CO)[C@@H](O)[C@H](O)[C@H]1NC(C)=O` has an IC50 [2] of 43 µM.

`C/C=C(\C)C(=O)O[C@@H]1[C@@H](O)[C@@H]2O[C@H]3[C@H](O[C@@H](CCCCC)CCCCCCC(=O)CCC(=O)OC[C@@H](O2)[C@H]1OC(=O)/C=C/c1ccccc1)O[C@H](C)[C@H](OC(C)=O)[C@@H]3O` showed an IC50 at 3 days [3] of 0.0168 µM and an IC50 (MCF-10A) of 0.0054 µM.

For `CO[C@@H]1O[C@H](CO)[C@@H](O[C@@H]2O[C@H](CO)[C@H](O)[C@H](O[C@H]3O[C@H](CO)[C@H](O)[C@H](O)[C@H]3NC(C)=O)[C@H]2O)[C@H](O[C@@H]2O[C@@H](C)[C@@H](O)[C@@H](O)[C@@H]2O)[C@H]1O`, the IC50 [4] was 24 µM, the IC50 (N2a) was 24 µM and the IC50 [5] was 24 µM. For the same compound, the IC50 [6] was 24 µM.

Compound `CCCCCCCC(=O)O[C@H]1[C@H](OC[C@H](O)[C@@H](O)[C@@H](O)[C@H](O)[C@H](O)CO)O[C@H](COC(=O)CCCCC)[C@@H](OC(=O)CCCCC)[C@@H]1OC(=O)CCCCC` has a viability at 12.5 µM (T-24 [7]) of 36.9%, an IC50 (MOLT-4) of 8.1 µM and an IC50 (MKN-45) of 16 µM. The Activity (T-24 [8]) was 57.3% and the IC50 [9] was 21.8 µM.

Work on `CCCCC[C@@H](CCCCCCCCCC(=O)O[C@H]1[C@H](O[C@@H](CNc2ccc(OC)cc2)[C@@H](O)[C@H](O)[C@H](O)CO)O[C@@H](C)[C@H](OC(=O)[C@@H](C)[C@@H](C)O)[C@H]1O[C@@H]1O[C@@H](C)[C@H](O)[C@@H](O)[C@H]1O)O[C@@H]1OC[C@@H](O)[C@H](O)[C@H]1O[C@@H]1O[C@H](CO)[C@@H](O)[C@H](O)[C@H]1O[C@@H]1O[C@@H](C)[C@H](OC(=O)[C@H](C)[C@@H](C)O)[C@@H](O[C@@H]2O[C@@H](C)[C@H](O)[C@@H](O)[C@H]2O)[C@H]1OC(=O)CCCCCCCCC[C@@H](O)CCC` yielded an IC50 (MG-63) of 10.9 µg/mL (≈ 5.9 µM), an IC50 (MCF7 [10]) of 8.72 µg/mL (≈ 4.72 µM) and an IC50 (SMMC-7721) of 9.78 µg/mL (≈ 5.29 µM).

Compound `CCCCCCCCCC[C@@H](CC(=O)O)OC(=O)C[C@H](CCCCCCCCCC)O[C@@H]1O[C@@H](C)[C@H](O)[C@@H](O)[C@H]1O` has an MIC (MCF7 [11]) of 6.25 µg/mL (≈ 10.6 µM), an IC50 (BV-173) of 50 µM and an IC50 (HL-60) of 67 µM. It also gave an IC50 [12] of 54 µM and an IC50 [13] of 60 µM.

With `CC(=O)OC[C@H]1O[C@H]2O[C@@H](C)CCCCCC/C=C\CCCCCCCC(=O)O[C@@H]3[C@@H](O)[C@H](O[C@@H]2[C@@H](O)[C@@H]1O)O[C@H](COC(C)=O)[C@H]3O` the IC50 (HeLa) was 12.2 µg/mL (≈ 17.8 µM), the “inhibition (INH)” value (MDA-MB-231 [14]) was 41.5% and the IC50 (MDA-MB-231 [15]) was 21.7 µM. The IC50 (Ca-Ski) was 25.3 µg/mL (≈ 36.8 µM).
